PubChem BioAssay (NCI)
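All cell lines were grown in 96-well plates and treated with compound for 48 hours. Abbreviation: GI50, concentration required for 50% inhibition of growth. TGI denotes the concentration required for complete inhibition of growth.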

Legend:
Test in all cases: inhibition of tumour cell growth, NCI panel, 48 h
[1] = test system: SK-MEL-2 melanoma
[2] = test system: LOX IMVI melanoma
[3] = test system: IGROV1 ovarian
[4] = test system: SK-OV-3 ovarian
[5] = test system: UO-31 renal
[6] = test system: K-562 leukemia
[7] = test system: ACHN renal
[8] = test system: OVCAR-8 ovarian
[9] = test system: SK-MEL-28 melanoma
[10] = test system: NCI-H23 lung

Compound: [Cl][Sn]([Cl])([c]1ccccc1)[c]1ccccc1
- GI50 [1]: 4 µM
- TGI [1]: 14.1 µM
- GI50 [2]: 4.51 µM
- TGI [2]: 17.1 µM
- GI50 [3]: 19.3 µM
- TGI [3]: 38.3 µM
- GI50 [4]: 17.4 µM
- TGI [4]: 31.6 µM
- GI50 [5]: 19.4 µM
- TGI [5]: 33.5 µM
- GI50 [6]: 2.69 µM
- TGI [6]: 12.3 µM
- GI50 [7]: 14.4 µM
- TGI [7]: 27.5 µM
- GI50 [8]: 14.4 µM
- TGI [8]: 27.8 µM
- GI50 [9]: 2.43 µM
- TGI [9]: 6.53 µM
- GI50 [10]: 10.4 µM
- TGI [10]: 24 µM

Compound: COc1cc(C(=O)N2N=C(c3ccc(S(C)(=O)=O)cc3)CC2c2ccco2)cc(OC)c1OC (stereo not given)
- GI50 [1]: 8.68 µM
- TGI [1]: > 100 µM
- GI50 [2]: 5.85 µM
- TGI [2]: > 100 µM
- GI50 [3]: 5.4 µM
- TGI [3]: > 100 µM
- GI50 [4]: 4.9 µM
- TGI [4]: > 100 µM
- GI50 [5]: 7.23 µM
- TGI [5]: > 100 µM
- GI50 [6]: 4.81 µM
- TGI [6]: > 100 µM
- GI50 [7]: 5.76 µM
- TGI [7]: > 100 µM
- GI50 [8]: 20.2 µM
- TGI [8]: > 100 µM
- GI50 [9]: 22.2 µM
- TGI [9]: > 100 µM
- GI50 [10]: 15.2 µM
- TGI [10]: > 100 µM

Compound: NC(=O)C#CC#CC#CCO
- TGI [1]: 4.9 µM
- TGI [2]: 3.83 µM
- TGI [3]: 7.4 µM
- TGI [4]: 25.5 µM
- TGI [5]: 3.68 µM
- TGI [6]: 4.65 µM
- TGI [7]: 2.61 µM
- TGI [8]: 3.42 µM
- TGI [9]: 3.58 µM
- TGI [10]: 3.93 µM

Compound: CCCCOc1ccc(NC(=O)n2nc(N)c3ccccc32)cc1
- GI50 [1]: 27.8 µM
- TGI [1]: 76 µM
- GI50 [2]: 11.6 µM
- TGI [2]: 24.2 µM
- GI50 [3]: 33 µM
- TGI [3]: > 100 µM
- GI50 [4]: 49.2 µM
- TGI [4]: > 100 µM
- GI50 [5]: 13.4 µM
- TGI [5]: > 100 µM
- GI50 [6]: 11.5 µM
- TGI [6]: 50.4 µM
- GI50 [7]: 22.7 µM
- TGI [7]: > 89.4 µM
- GI50 [8]: 30.3 µM
- TGI [8]: > 85.9 µM
- GI50 [9]: 28.3 µM
- TGI [9]: > 90.5 µM
- GI50 [10]: 22.6 µM
- TGI [10]: 57.5 µM

Compound: C#CCN(Cc1nc2cc(C(F)(F)F)ccc2nc1-c1ccccc1)c1ccc(OC(F)(F)F)cc1
- GI50 [1]: > 100 µM
- TGI [1]: > 100 µM
- GI50 [2]: 37 µM
- TGI [2]: 96.1 µM
- GI50 [3]: 34.8 µM
- TGI [3]: > 100 µM
- GI50 [4]: > 100 µM
- TGI [4]: > 100 µM
- GI50 [5]: 50.7 µM
- TGI [5]: > 100 µM
- GI50 [6]: 33.9 µM
- TGI [6]: > 100 µM
- GI50 [7]: 50.2 µM
- TGI [7]: > 100 µM
- GI50 [8]: 74.3 µM
- TGI [8]: > 100 µM
- GI50 [9]: > 100 µM
- TGI [9]: > 100 µM
- GI50 [10]: 60.5 µM
- TGI [10]: > 100 µM

Compound: Cn1cc(C2=C(c3cn(CCO)c4ccccc34)C(=O)NC2=O)c2ccccc21
- GI50 [1]: 1.65 µM
- TGI [1]: 8.37 µM
- GI50 [2]: 2.77 µM
- TGI [2]: > 25 µM
- GI50 [3]: 4.93 µM
- TGI [3]: 14.9 µM
- GI50 [4]: 2.61 µM
- TGI [4]: > 21.9 µM
- GI50 [5]: 3.2 µM
- TGI [5]: 14.6 µM
- GI50 [6]: 1.12 µM
- TGI [6]: > 25 µM
- GI50 [7]: 4 µM
- TGI [7]: > 25 µM
- GI50 [8]: 5.48 µM
- TGI [8]: > 21.9 µM
- GI50 [9]: 3.76 µM
- TGI [9]: 20.2 µM
- GI50 [10]: 4.75 µM
- TGI [10]: 15.2 µM

Compound: CC/C(=C(/c1ccc(OCCN(C)C)cc1)c1ccc(OC(=O)CCC(=O)c2c(C)[nH]c(/C=C3\N=C(c4ccc[nH]4)C=C3OC)c2C)cc1)c1ccccc1
- GI50 [1]: 2.42 µM
- TGI [1]: 6.2 µM
- GI50 [2]: 0.456 µM
- TGI [2]: 1.69 µM
- GI50 [3]: 3.65 µM
- TGI [3]: 15.4 µM
- GI50 [4]: 6.99 µM
- TGI [4]: 29.6 µM
- GI50 [5]: 1.71 µM
- TGI [5]: 5.05 µM
- GI50 [6]: 2.32 µM
- TGI [6]: 6.37 µM
- GI50 [7]: 2.57 µM
- TGI [7]: 15.9 µM
- GI50 [8]: 2.73 µM
- TGI [8]: 10.3 µM
- GI50 [9]: 2.89 µM
- TGI [9]: 12.4 µM
- GI50 [10]: 4.02 µM
- TGI [10]: 18.7 µM
